≈ marks a conversion by molar mass, not a printed value.
Key:
Assay type in all cases: cell-based
[1] = system: Staphylococcus aureus ATCC 6538P; assay: in vitro antibacterial MIC, agar dilution (BHI agar, Steers replicator); details: organism code AA; 35-37° C., 20 to 24 hours; unit assumed
Method: (§1) Representative compounds of the present invention were assayed in vitro for antibacterial activity as follows: Twelve petri dishes containing successive aqueous dilutions of the test compound mixed with 10 mL of sterilized Brain Heart Infusion (BHI) agar (Difco 0418-01-5) were prepared. Each plate was inoculated with 1:100 (or 1:10 for slow-growing strains, such as Micrococcus and Streptococcus) dilutions of up to 32 different microorganisms, using a Steers replicator block. […] In addition, a control plate, using BHI agar containing no test compound, was prepared and incubated at the beginning and end of each test.
(§2) An additional plate containing a compound having known susceptibility patterns for the organisms being tested and belonging to the same antibiotic class as the test compound was also prepared and incubated as a further control, as well as to provide test-to-test comparability.
(§3) After incubation, each plate was visually inspected. The minimum inhibitory concentration (MIC) was defined as the lowest concentration of drug yielding no growth, a slight haze, or sparsely isolated colonies on the inoculum spot as compared to the growth control.

[2] = system: Enterococcus faecium ATCC 8Q43; assay: in vitro antibacterial MIC, agar dilution; details: organism code II; 35-37° C., 20 to 24 hours; unit assumed
Method: as §1, §2, §3

Escherichia coli DC-2 = assay: in vitro antibacterial MIC, agar dilution; details: organism code SS; 35-37° C., 20 to 24 hours; unit assumed
Method: as §1, §2, §3

Escherichia coli JUHL = assay: in vitro antibacterial MIC, agar dilution; details: organism code QQ; 35-37° C., 20 to 24 hours; unit assumed
Method: as §1, §2, §3

Escherichia coli SS = assay: in vitro antibacterial MIC, agar dilution; details: organism code RR; 35-37° C., 20 to 24 hours; unit assumed
Method: as §1, §2, §3

[3] = system: Haemophilis Influenzae DILL AMP R; assay: in vitro antibacterial MIC, agar dilution; details: organism code WW; 35-37° C., 20 to 24 hours; unit assumed
Method: as §1, §2, §3

[4] = system: Micrococcus luteus ATCC 4698; assay: in vitro antibacterial MIC, agar dilution; details: organism code PP; 35-37° C., 20 to 24 hours; unit assumed
Method: as §1, §2, §3

[5] = system: Micrococcus luteus ATCC 9341; assay: in vitro antibacterial MIC, agar dilution; details: organism code OO; 35-37° C., 20 to 24 hours; unit assumed
Method: as §1, §2, §3

[6] = system: Mycobacterium smegmatis ATCC 114; assay: in vitro antibacterial MIC, agar dilution; details: organism code UU; 35-37° C., 20 to 24 hours; unit assumed
Method: as §1, §2, §3

[7] = system: Nocardia Asteroides ATCC9970; assay: in vitro antibacterial MIC, agar dilution; details: organism code VV; 35-37° C., 20 to 24 hours; unit assumed
Method: as §1, §2, §3

[8] = system: Staphylococcus aureus 1775; assay: in vitro antibacterial MIC, agar dilution; details: organism code GG; 35-37° C., 20 to 24 hours; unit assumed
Method: as §1, §2, §3

[9] = system: Staphylococcus aureus A-5278; assay: in vitro antibacterial MIC, agar dilution; details: organism code CC; 35-37° C., 20 to 24 hours; unit assumed
Method: as §1, §2, §3

[10] = system: Staphylococcus aureus A5177; assay: in vitro antibacterial MIC, agar dilution; details: organism code BB; 35-37° C., 20 to 24 hours; unit assumed
Method: as §1, §2, §3

[11] = system: Staphylococcus aureus CMX 553; assay: in vitro antibacterial MIC, agar dilution; details: organism code FF; 35-37° C., 20 to 24 hours; unit assumed
Method: as §1, §2, §3

[12] = system: Staphylococcus aureus CMX 642A; assay: in vitro antibacterial MIC, agar dilution; details: organism code DD; 35-37° C., 20 to 24 hours; unit assumed
Method: as §1, §2, §3

[13] = system: Staphylococcus aureus NCTC10649M; assay: in vitro antibacterial MIC, agar dilution; details: organism code EE; 35-37° C., 20 to 24 hours; unit assumed
Method: as §1, §2, §3

[14] = system: Staphylococcus epidermidis 3519; assay: in vitro antibacterial MIC, agar dilution; details: organism code HH; 35-37° C., 20 to 24 hours; unit assumed
Method: as §1, §2, §3

[15] = system: Streptococcus Pheumoniae 5649; assay: in vitro antibacterial MIC, agar dilution; details: organism code ZZA; 35-37° C., 20 to 24 hours; unit assumed
Method: as §1, §2, §3

[16] = system: Streptococcus Pheumoniae 5979; assay: in vitro antibacterial MIC, agar dilution; details: organism code ZZ; 35-37° C., 20 to 24 hours; unit assumed
Method: as §1, §2, §3

[17] = system: Streptococcus Pheumoniae ATCC6303; assay: in vitro antibacterial MIC, agar dilution; details: organism code XX; 35-37° C., 20 to 24 hours; unit assumed
Method: as §1, §2, §3

[18] = system: Streptococcus Pheumoniae GYR 1171; assay: in vitro antibacterial MIC, agar dilution; details: organism code YY; 35-37° C., 20 to 24 hours; unit assumed
Method: as §1, §2, §3

[19] = system: Streptococcus agalactiae CMX 508; assay: in vitro antibacterial MIC, agar dilution; details: organism code KK; 35-37° C., 20 to 24 hours; unit assumed
Method: as §1, §2, §3

[20] = system: Streptococcus bovis A-5169; assay: in vitro antibacterial MIC, agar dilution; details: organism code JJ; 35-37° C., 20 to 24 hours; unit assumed
Method: as §1, §2, §3

[21] = system: Streptococcus pyogenes 930; assay: in vitro antibacterial MIC, agar dilution; details: organism code MM; 35-37° C., 20 to 24 hours; unit assumed
Method: as §1, §2, §3

[22] = system: Streptococcus pyogenes EES61; assay: in vitro antibacterial MIC, agar dilution; details: organism code LL; 35-37° C., 20 to 24 hours; unit assumed
Method: as §1, §2, §3

[23] = system: Streptococcus pyogenes PIU 2548; assay: in vitro antibacterial MIC, agar dilution; details: organism code NN; 35-37° C., 20 to 24 hours; unit assumed
Method: as §1, §2, §3

Candida albicans CCH 442 = assay: in vitro MIC, agar dilution; details: organism code TT; 35-37° C., 20 to 24 hours; unit assumed
Method: as §1, §2, §3

SMILES | MIC [1] [µg/mL] | MIC [2] [µg/mL] | MIC (Escherichia coli DC-2) [µg/mL] | MIC (Escherichia coli JUHL) [µg/mL] | MIC (Escherichia coli SS) [µg/mL] | MIC [3] [µg/mL] | MIC [4] [µg/mL] | MIC [5] [µg/mL] | MIC [6] [µg/mL] | MIC [7] [µg/mL] | MIC [8] [µg/mL] | MIC [9] [µg/mL] | MIC [10] [µg/mL] | MIC [11] [µg/mL] | MIC [12] [µg/mL] | MIC [13] [µg/mL] | MIC [14] [µg/mL] | MIC [15] [µg/mL] | MIC [16] [µg/mL] | MIC [17] [µg/mL] | other results
CC[C@H]1OC(=O)[C@H](C)[C@@H](O[C@H]2C[C@@](C)(OC)[C@@H](O)[C@H](C)O2)[C@H](C)[C@@H](O[C@@H]2O[C@H](C)C[C@H](N(C)C)[C@H]2O)[C@@]2(C)C[C@@H](C)C(=O)[C@H](C)[C@H]3N(CC(O)CCCCO2)C(=O)O[C@]13C (stereo partly drawn) [Example 22] | 1.56 (≈ 1.82 µM) | 0.2 (≈ 0.233 µM) | > 100 | 100 (≈ 117 µM) | 0.78 (≈ 0.91 µM) | 4 (≈ 4.67 µM) | 0.39 (≈ 0.455 µM) | 0.1 (≈ 0.117 µM) | 0.78 (≈ 0.91 µM) | 0.1 (≈ 0.117 µM) | > 100 | > 100 | 12.5 (≈ 14.6 µM) | 1.56 (≈ 1.82 µM) | 1.56 (≈ 1.82 µM) | 1.56 (≈ 1.82 µM) | 1.56 (≈ 1.82 µM) | 16 (≈ 18.7 µM) | > 128 | 0.06 (≈ 0.07 µM) | MIC [18]: 0.06 µg/mL (≈ 0.07 µM); MIC [19]: 0.1 µg/mL (≈ 0.117 µM); MIC [20]: 0.05 µg/mL (≈ 0.0583 µM); MIC [21]: > 100 µg/mL; MIC [22]: 0.1 µg/mL (≈ 0.117 µM); MIC [23]: 12.5 µg/mL (≈ 14.6 µM); MIC (Candida albicans CCH 442): > 100 µg/mL
CC[C@H]1OC(=O)[C@H](C)[C@@H](O[C@H]2C[C@@](C)(OC)[C@@H](O)[C@H](C)O2)[C@H](C)[C@@H](O[C@@H]2O[C@H](C)C[C@H](N(C)C)[C@H]2O)[C@@]2(C)C[C@@H](C)C(=O)[C@H](C)[C@H]3N(CCNC(=O)c4ccccc4CC=CCO2)C(=O)O[C@]13C [Example 24] | 0.78 (≈ 0.814 µM) | 0.2 (≈ 0.209 µM) | > 100 | 100 (≈ 104 µM) | 6.2 (≈ 6.47 µM) | 16 (≈ 16.7 µM) | 1.56 (≈ 1.63 µM) | 0.1 (≈ 0.104 µM) | 0.39 (≈ 0.407 µM) | 0.1 (≈ 0.104 µM) | > 100 | > 100 | 25 (≈ 26.1 µM) | 0.78 (≈ 0.814 µM) | 1.56 (≈ 1.63 µM) | 1.56 (≈ 1.63 µM) | 1.56 (≈ 1.63 µM) | 16 (≈ 16.7 µM) | 128 (≈ 134 µM) | 0.03 (≈ 0.0313 µM) | MIC [18]: 0.03 µg/mL (≈ 0.0313 µM); MIC [19]: 0.1 µg/mL (≈ 0.104 µM); MIC [20]: 0.1 µg/mL (≈ 0.104 µM); MIC [21]: > 100 µg/mL; MIC [22]: 0.1 µg/mL (≈ 0.104 µM); MIC [23]: 12.5 µg/mL (≈ 13 µM); MIC (Candida albicans CCH 442): > 100 µg/mL

Reference: patent publication US6046171A, “6,11-bridged erythromycin derivatives” (priority 1998, dated 2000)
